{"source": "PubChem BioAssay AID2060600", "about": "(Molecular Pharmacology Branch, DTP, NCI, 2025)", "test_system": "996289-038-R-J1-PDC complex spheroid viability", "test": "Anticancer human tumor 996289-038-R-J1-PDC patient-derived colon adenocarcinoma cell line growth inhibition [CLK]", "details": "for pIC50: curve of first compound; for viability, T/C: stronger effect = lower value", "source_text": "A high-throughput screen of multi-cell type tumor spheroids was designed to identify active combinations of […] and targeted small molecules. Complex spheroids include a stromal component modeled by human endothelial cells (HUVEC) and fibroblasts modeled by human mesenchymal stem cells (MSCs). The concentration ranges selected for each drug and investigational agent were based upon clinically achievable concentrations if the clinical Cmax of the agent was known.\nCompounds. The drugs and investigational agents: cirtuvivint (SM08502; NSC835563), CC-671 (NSC850746), vemurafenib (NSC761431), tapotoclax (NSC804041), sotorasib (NSC818433), adagrasib (NSC831453), MRTX-1133 (NSC836407), BAY2416964 (NSC825713), copanlisib (NSC816437), inavolisib (NSC800729), abemaciclib (NSC768073), osimertinib (NSC779217), entinostat (NSC756642), eltanexor (KPT-8602, NSC794443), venetoclax (NSC766270), ceralasertib (NSC777638), bortezomib (NSC756655), olaparib (NSC753686), talazoparib (NSC767125), alisertib (NSC759677), peposertib (NSC802822), gemcitabine (NSC613327), 5-fluorouracil (NSC19893), SN-38 (NSC673596), oxaliplatin (NSC266046), paclitaxel (NSC125973), and doxorubicin (NSC123127), were obtained from the National Cancer Institute (NCI) Developmental Therapeutics Program Chemical Repository. The FDA-approved anticancer drug set is available from the Developmental Therapeutics Program at https://dtp.cancer.gov/organization/dscb/obtaining/available plates.htm. […] The stock solutions were prepared in dimethyl sulfoxide (DMSO, Sigma-Aldrich, St. Louis, MO, cat. D2650), except for the platinum complexes which were prepared in saline (Quality Biological, Gaithersburg, MD, cat. 114-055-101), at 800-fold the tested concentration and stored at -70 degrees C prior to their use. All drugs and investigational agents were tested over a range starting from a high concentration at or near the clinical Cmax and decreasing in half-log increments. If the clinical Cmax for an agent had not been determined, the highest concentration tested was 10 microM.\nCell Culture. All cells were maintained in an incubator at 37 degrees C and 5% CO2 with 95% humidity. The PDC lines were cultured according to standard operating procedures established by the NCI PDMR. Briefly, all PDCs were thawed and cultured in Matrigel-coated flasks prepared with a working solution of 1X Ham's F-12 nutrient mix, without supplementation (Invitrogen, Waltham, MA, cat. 11765054), 100 U/mL penicillin-streptomycin (Invitrogen, cat. 15140122), and 2.5% Matrigel (Corning Inc., Corning, NY, cat. 354248) for the first three passages. The 947758-054-R-J2-PDC line was cultured in 6B/Colon 1A media, which includes advanced DMEM/F-12 (Thermo Fisher Scientific, cat. 12634028), 10 mM HEPES (Thermo Fisher Scientific, cat. 15630080), 1X GlutaMAX supplement (Thermo Fisher Scientific, cat. 35050061), 0.1 mg/mL primocin (InvivoGen, cat. ant-pm-2), 10% defined fetal bovine serum, heat inactivated (HyClone Laboratories Inc., cat. SH30070.03HI), 1.25 mM N-Acetyl-L-cysteine (Sigma-Aldrich, cat. A9165), 10 mM nicotinamide (Sigma-Aldrich, cat. N0636), 1X B-27 supplement (Thermo Fisher Scientific, cat. 17504044), 1X N-2 supplement (Thermo Fisher Scientific, cat. 17502048), and 10 microM Y-27632 dihydrochloride (Tocris Bioscience, cat. 1254). The 876862-298-R-J1-PDC was cultured in 6E media, which includes all 6B/Colon 1A media components plus 50% L-WRN conditioned media (ATCC, cat. CRL-3276), 50 ng/mL recombinant human EGF recombinant protein (hEGF; Thermo Fisher Scientific, cat. PHG0311), 10 ng/mL recombinant human fibroblast growth factor 10 (hGFG-10; PeproTech, cat. 100-26), 1 ng/mL recombinant human fibroblast growth factor 2 (hFGF-2; PeproTech, cat. 100-18B), and 1 µM prostaglandin E2 (PGE2; Tocris, cat. 2296). The 227483-062-R1-J1-PDC line was cultured in Panc media, containing all 6E components except hFGF-2, with the addition of 500 nM SB-431542 (Selleckchem, cat. S1067) and 10 nM gastrin (Tocris, cat. 3006). […]", "note": "pIC50: −log10 of the molar value.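 Note: spheroids exposed to the agents for 7 days before readout.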", "data": [{"smiles": "C=CC(=O)Nc1cc(Nc2nccc(-c3cn(C)c4ccccc34)n2)c(OC)cc1N(C)CCN(C)C", "note": "+ CN1CCN(c2cc(C(=O)Nc3cc4cc(-c5cnn(C)c5)ccc4cn3)ccn2)CC1", "values": [{"measurement": "pIC50", "setting": "second compound 0.0316 µM", "result": "< 6.52"}, {"measurement": "pIC50", "setting": "second compound 0.1 µM", "result": "< 6.52"}, {"measurement": "pIC50", "setting": "second compound 0.316 µM", "result": 7.04}, {"measurement": "pIC50", "setting": "second compound 1 µM", "result": "> 9.02"}, {"measurement": "pIC50", "setting": "second compound 3.16 µM", "result": "> 9.02"}, {"measurement": "pIC50", "setting": "second compound 10 µM", "result": "> 9.02"}, {"measurement": "viability, T/C", "setting": "second compound 0.0316 µM, first compound 0.000949 µM", "result": 104, "unit": "%"}, {"measurement": "viability, T/C", "setting": "second compound 0.0316 µM, first compound 0.003 µM", "result": 104, "unit": "%"}, {"measurement": "viability, T/C", "setting": "second compound 0.0316 µM, first compound 0.00949 µM", "result": 105, "unit": "%"}, {"measurement": "viability, T/C", "setting": "second compound 0.0316 µM, first compound 0.03 µM", "result": 103, "unit": "%"}, {"measurement": "viability, T/C", "setting": "second compound 0.0316 µM, first compound 0.0949 µM", "result": 99.8, "unit": "%"}, {"measurement": "viability, T/C", "setting": "second compound 0.0316 µM, first compound 0.3 µM", "result": 74.7, "unit": "%"}, {"measurement": "viability, T/C", "setting": "second compound 0.1 µM, first compound 0.000949 µM", "result": 93.7, "unit": "%"}, {"measurement": "viability, T/C", "setting": "second compound 0.1 µM, first compound 0.003 µM", "result": 93.7, "unit": "%"}, {"measurement": "viability, T/C", "setting": "second compound 0.1 µM, first compound 0.00949 µM", "result": 91.2, "unit": "%"}, {"measurement": "viability, T/C", "setting": "second compound 0.1 µM, first compound 0.03 µM", "result": 84.4, "unit": "%"}, {"measurement": "viability, T/C", "setting": "second compound 0.1 µM, first compound 0.0949 µM", "result": 86, "unit": "%"}, {"measurement": "viability, T/C", "setting": "second compound 0.1 µM, first compound 0.3 µM", "result": 65.9, "unit": "%"}, {"measurement": "viability, T/C", "setting": "second compound 0.316 µM, first compound 0.000949 µM", "result": 74.2, "unit": "%"}, {"measurement": "viability, T/C", "setting": "second compound 0.316 µM, first compound 0.003 µM", "result": 69, "unit": "%"}, {"measurement": "viability, T/C", "setting": "second compound 0.316 µM, first compound 0.00949 µM", "result": 63.5, "unit": "%"}, {"measurement": "viability, T/C", "setting": "second compound 0.316 µM, first compound 0.03 µM", "result": 56.8, "unit": "%"}, {"measurement": "viability, T/C", "setting": "second compound 0.316 µM, first compound 0.0949 µM", "result": 53.5, "unit": "%"}, {"measurement": "viability, T/C", "setting": "second compound 0.316 µM, first compound 0.3 µM", "result": 37.2, "unit": "%"}, {"measurement": "viability, T/C", "setting": "second compound 1 µM, first compound 0.000949 µM", "result": 6.28, "unit": "%"}, {"measurement": "viability, T/C", "setting": "second compound 1 µM, first compound 0.003 µM", "result": 6.22, "unit": "%"}, {"measurement": "viability, T/C", "setting": "second compound 1 µM, first compound 0.00949 µM", "result": 7.21, "unit": "%"}, {"measurement": "viability, T/C", "setting": "second compound 1 µM, first compound 0.03 µM", "result": 6.93, "unit": "%"}, {"measurement": "viability, T/C", "setting": "second compound 1 µM, first compound 0.0949 µM", "result": 4.43, "unit": "%"}, {"measurement": "viability, T/C", "setting": "second compound 1 µM, first compound 0.3 µM", "result": 1.67, "unit": "%"}, {"measurement": "viability, T/C", "setting": "second compound 3.16 µM, first compound 0.000949 µM", "result": 0.79, "unit": "%"}, {"measurement": "viability, T/C", "setting": "second compound 3.16 µM, first compound 0.003 µM", "result": 1.11, "unit": "%"}, {"measurement": "viability, T/C", "setting": "second compound 3.16 µM, first compound 0.00949 µM", "result": 1.16, "unit": "%"}, {"measurement": "viability, T/C", "setting": "second compound 3.16 µM, first compound 0.03 µM", "result": 1.29, "unit": "%"}, {"measurement": "viability, T/C", "setting": "second compound 3.16 µM, first compound 0.0949 µM", "result": 0.93, "unit": "%"}, {"measurement": "viability, T/C", "setting": "second compound 3.16 µM, first compound 0.3 µM", "result": 0.71, "unit": "%"}, {"measurement": "viability, T/C", "setting": "second compound 10 µM, first compound 0.000949 µM", "result": 1.47, "unit": "%"}, {"measurement": "viability, T/C", "setting": "second compound 10 µM, first compound 0.003 µM", "result": 0.58, "unit": "%"}, {"measurement": "viability, T/C", "setting": "second compound 10 µM, first compound 0.00949 µM", "result": 0.99, "unit": "%"}, {"measurement": "viability, T/C", "setting": "second compound 10 µM, first compound 0.03 µM", "result": 1.04, "unit": "%"}, {"measurement": "viability, T/C", "setting": "second compound 10 µM, first compound 0.0949 µM", "result": 0.51, "unit": "%"}, {"measurement": "viability, T/C", "setting": "second compound 10 µM, first compound 0.3 µM", "result": 1.04, "unit": "%"}]}]}
